± gives the expanded uncertainty stated by the source.
Columns and labels:
[1] = activity coefficient (dimensionless); of the first substance listed, at infinite dilution; xn = mol fraction of the nth substance listed; conditions: 101 kPa, Liquid, x1 = 0
[2] = activity coefficient (dimensionless); of the first substance listed, at infinite dilution; wn = mass fraction of the nth substance listed; conditions: 101 kPa, Liquid, dilutor technique, w1 = 0
[3] = excess molar enthalpy (molar enthalpy of mixing); xn = mol fraction of the nth substance listed; conditions: 363.15 K, Liquid, Flow calorimetry

SMILES: Cc1ccccc1 [toluene] + CCCCCCn1cc[n+](C)c1.O=S(=O)([O-])C(F)(F)F
- activity coefficient ([1]; 303.15 K, Dilutor technique): 1.38 ± 0.09
- activity coefficient ([1]; 313.15 K, Dilutor technique): 1.52 ± 0.1
- activity coefficient ([1]; 323.15 K, Dilutor technique): 1.65 ± 0.12
- activity coefficient ([1]; 333.15 K, Dilutor technique): 1.75 ± 0.12

SMILES: O [water] + CCCCCCn1cc[n+](C)c1.O=S(=O)([O-])C(F)(F)F
- activity coefficient ([2]; 303.15 K): 1.31 ± 0.09
- activity coefficient ([2]; 313.15 K): 1.04 ± 0.06
- activity coefficient ([2]; 323.15 K): 0.82 ± 0.05
- activity coefficient ([2]; 333.15 K): 0.64 ± 0.05

SMILES: O [water] + CCCC[N+]1(C)CCCC1.O=S(=O)([O-])C(F)(F)F
- activity coefficient ([1]; 313.15 K, dilutor technique): 0.67 ± 0.05
- activity coefficient ([1]; 323.15 K, dilutor technique): 0.56 ± 0.05
- activity coefficient ([1]; 333.15 K, dilutor technique): 0.51 ± 0.04
- activity coefficient ([1]; 343.15 K, dilutor technique): 0.44 ± 0.04

SMILES: CC1CCCCC1 [methylcyclohexane] + CCCCCCn1cc[n+](C)c1.O=S(=O)([O-])C(F)(F)F
- activity coefficient ([1]; 303.15 K, dilutor technique): 10.5 ± 0.95
- activity coefficient ([1]; 313.15 K, dilutor technique): 10.2 ± 0.9
- activity coefficient ([1]; 323.15 K, dilutor technique): 9.77 ± 0.88
- activity coefficient ([1]; 333.15 K, dilutor technique): 9.49 ± 0.85

SMILES: CC1CCCCC1 [methylcyclohexane] + CCCCCCCC[N+]1(C)CCCC1.O=S(=O)([N-]S(=O)(=O)C(F)(F)F)C(F)(F)F
- activity coefficient ([1]; 303.15 K, dilutor technique): 4.59 ± 0.41
- activity coefficient ([1]; 313.15 K, dilutor technique): 4.41 ± 0.39
- activity coefficient ([1]; 323.15 K, dilutor technique): 4.29 ± 0.38
- activity coefficient ([1]; 333.15 K, dilutor technique): 4.18 ± 0.37

SMILES: Cc1ccccc1 [toluene] + CCCCCCCC[N+]1(C)CCCC1.O=S(=O)([N-]S(=O)(=O)C(F)(F)F)C(F)(F)F
- activity coefficient ([1]; 303.15 K, dilutor technique): 0.67 ± 0.05
- activity coefficient ([1]; 313.15 K, dilutor technique): 0.73 ± 0.05
- activity coefficient ([1]; 323.15 K, dilutor technique): 0.8 ± 0.05
- activity coefficient ([1]; 333.15 K, dilutor technique): 0.86 ± 0.06

SMILES: CCO [ethanol] + CCCC[N+]1(C)CCCC1.O=S(=O)([O-])C(F)(F)F
- activity coefficient ([1]; 313.15 K, dilutor technique): 0.95 ± 0.06
- activity coefficient ([1]; 323.15 K, dilutor technique): 0.92 ± 0.06
- activity coefficient ([1]; 333.15 K, dilutor technique): 0.88 ± 0.06
- activity coefficient ([1]; 343.15 K, dilutor technique): 0.86 ± 0.06

SMILES: CCO [ethanol] + CCCCCCn1cc[n+](C)c1.O=S(=O)([O-])C(F)(F)F
- activity coefficient ([1]; 303.15 K, dilutor technique): 1.05 ± 0.07
- activity coefficient ([1]; 313.15 K, dilutor technique): 1 ± 0.06
- activity coefficient ([1]; 323.15 K, dilutor technique): 0.94 ± 0.06
- activity coefficient ([1]; 333.15 K, dilutor technique): 0.86 ± 0.06

SMILES: Cc1ccccc1 [toluene] + CCCCCC[n+]1ccn(C)c1.O=S(=O)([N-]S(=O)(=O)C(F)(F)F)C(F)(F)F
- activity coefficient ([1]; 303.15 K, dilutor technique): 0.85 ± 0.06
- activity coefficient ([1]; 313.15 K, dilutor technique): 0.95 ± 0.06
- activity coefficient ([1]; 323.15 K, dilutor technique): 1.05 ± 0.07
- activity coefficient ([1]; 333.15 K, dilutor technique): 1.14 ± 0.07

SMILES: CCCCCC[n+]1ccn(C)c1.O=S(=O)([N-]S(=O)(=O)C(F)(F)F)C(F)(F)F + CCCCCCCC
- excess molar enthalpy ([3]; 1548 kPa, x2 = 0.0486): 0.0487 ± 0.00201 kcal/mol
- excess molar enthalpy ([3]; 1548 kPa, x2 = 0.095): 0.0882 ± 0.00359 kcal/mol
- excess molar enthalpy ([3]; 1548 kPa, x2 = 0.1392): 0.108 ± 0.0043 kcal/mol
- excess molar enthalpy ([3]; 1548 kPa, x2 = 0.1814): 0.116 ± 0.00478 kcal/mol
- excess molar enthalpy ([3]; 1548 kPa, x2 = 0.2217): 0.111 ± 0.00454 kcal/mol
- excess molar enthalpy ([3]; 1548 kPa, x2 = 0.2603): 0.106 ± 0.0043 kcal/mol
- excess molar enthalpy ([3]; 1548 kPa, x2 = 0.3327): 0.0959 ± 0.00382 kcal/mol
- excess molar enthalpy ([3]; 1548 kPa, x2 = 0.3993): 0.0877 ± 0.00359 kcal/mol
- excess molar enthalpy ([3]; 1548 kPa, x2 = 0.4608): 0.0791 ± 0.00335 kcal/mol
- excess molar enthalpy ([3]; 1548 kPa, x2 = 0.5707): 0.0636 ± 0.00263 kcal/mol
- excess molar enthalpy ([3]; 1548 kPa, x2 = 0.666): 0.0483 ± 0.00201 kcal/mol
- excess molar enthalpy ([3]; 1548 kPa, x2 = 0.7495): 0.0384 ± 0.0016 kcal/mol
- excess molar enthalpy ([3]; 1548 kPa, x2 = 0.8568): 0.0227 ± 0.000956 kcal/mol

SMILES: CCCCCC[n+]1ccn(C)c1.O=S(=O)([N-]S(=O)(=O)C(F)(F)F)C(F)(F)F + CC1CCCCC1
- excess molar enthalpy ([3]; 1617 kPa, x2 = 0.0612): 0.0459 ± 0.00191 kcal/mol
- excess molar enthalpy ([3]; 1617 kPa, x2 = 0.118): 0.092 ± 0.00382 kcal/mol
- excess molar enthalpy ([3]; 1617 kPa, x2 = 0.1708): 0.132 ± 0.0055 kcal/mol
- excess molar enthalpy ([3]; 1617 kPa, x2 = 0.2202): 0.166 ± 0.00669 kcal/mol
- excess molar enthalpy ([3]; 1617 kPa, x2 = 0.2663): 0.176 ± 0.00717 kcal/mol
- excess molar enthalpy ([3]; 1617 kPa, x2 = 0.3096): 0.173 ± 0.00693 kcal/mol
- excess molar enthalpy ([3]; 1617 kPa, x2 = 0.3885): 0.154 ± 0.00621 kcal/mol
- excess molar enthalpy ([3]; 1617 kPa, x2 = 0.4586): 0.136 ± 0.0055 kcal/mol
- excess molar enthalpy ([3]; 1617 kPa, x2 = 0.5213): 0.12 ± 0.00502 kcal/mol
- excess molar enthalpy ([3]; 1617 kPa, x2 = 0.6288): 0.0943 ± 0.00382 kcal/mol
- excess molar enthalpy ([3]; 1617 kPa, x2 = 0.7176): 0.0722 ± 0.00287 kcal/mol
- excess molar enthalpy ([3]; 1617 kPa, x2 = 0.7922): 0.0525 ± 0.00217 kcal/mol
- excess molar enthalpy ([3]; 1617 kPa, x2 = 0.884): 0.0269 ± 0.00112 kcal/mol

SMILES: CC1CCCCC1 [methylcyclohexane] + CCCCCC[n+]1ccn(C)c1.O=S(=O)([N-]S(=O)(=O)C(F)(F)F)C(F)(F)F
- activity coefficient ([1]; 303.15 K, dilutor technique): 6.83 ± 0.61
- activity coefficient ([1]; 313.15 K, dilutor technique): 6.59 ± 0.59
- activity coefficient ([1]; 323.15 K, dilutor technique): 6.3 ± 0.56
- activity coefficient ([1]; 333.15 K, dilutor technique): 6.06 ± 0.54

SMILES: CCO [ethanol] + CCOS(=O)(=O)[O-].CCn1cc[n+](C)c1
- activity coefficient ([1]; 323.15 K, dilutor technique): 0.57 ± 0.05
- activity coefficient ([1]; 333.15 K, dilutor technique): 0.6 ± 0.05
- activity coefficient ([1]; 343.15 K, dilutor technique): 0.65 ± 0.05
- activity coefficient ([1]; 353.15 K, dilutor technique): 0.7 ± 0.05

— the NIST ThermoML archive (doi:10.1016/j.fluid.2008.03.011)
